Key:
kochia [1] = test: Test A preemergence; assay type: in vivo, Kochia scoparia; conditions: 0 to 100 scale (0 no effect, 100 complete control)
In short: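 Weed and crop species in loam–sand blend sprayed preemergence on soil or postemergence at 2–10 cm, one- to two-leaf stage, with chemicals in surfactant-containing solvent. Injury rated visually after ~10 d in greenhouse versus untreated controls on a 0–100 scale (100 = complete control).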

pigweed = test: Test C preemergence; assay type: in vivo, Amaranthus retroflexus; conditions: for Plant response rating (scale of 0 to 100 where 0 is no effect and 100 is complete control): Pigweed, preemergence; for Pigweed plant response rating (0 to 100): Preemergence, visual rating after 13 to 15 d
In short: (§1)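 Plants are treated postemergence at the 1- to 4-leaf stage (2 to 18 cm), grown in sphagnum peat/vermiculite medium; preemergence treatment is applied to seed planted in loam soil with sand. Both use test chemical in a non-phytotoxic solvent mixture with surfactant.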

oilseed rape = test: Test C preemergence; assay type: in vivo, Brassica napus; conditions: for Plant response rating (scale of 0 to 100 where 0 is no effect and 100 is complete control): Oilseed Rape, preemergence; for Oilseed Rape plant response rating (0 to 100): Preemergence, visual rating after 13 to 15 d
In short: as §1

field violet = test: Test D preemergence; assay type: in vivo, Viola arvensis; conditions: for Plant response rating: Field Violet: scale 0 to 100
In short: (§2)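 Pre: sown in silt loam, treated at planting. Post: grown in peat/vermiculite medium, treated at 1- to 4-leaf stage (2–18 cm). Compounds in non-phytotoxic solvent plus surfactant. Kept 14–21 d in controlled environment, then scored visually vs controls. Dash = no test result.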

kochia [2] = test: Test D preemergence; assay type: in vivo, Kochia scoparia; conditions: for Plant response rating: Kochia: scale 0 to 100
In short: as §2

lambsquarters = test: Test D preemergence; assay type: in vivo, Chenopodium album; conditions: for Plant response rating: Lambsquarters: scale 0 to 100
In short: as §2

speedwell = test: Test D preemergence; assay type: in vivo, Veronica persica; conditions: for Plant response rating: Speedwell: scale 0 to 100
In short: as §2

wild mustard = test: Test D preemergence; assay type: in vivo, Sinapis arvensis; conditions: for Plant response rating: Mustard, Wild: scale 0 to 100
In short: as §2

blackgrass = test: Test D postemergence; assay type: in vivo, Alopecurus myosuroides; conditions: scale 0 to 100
In short: as §2

Russian thistle = test: Test D postemergence; assay type: in vivo, Salsola kali; conditions: scale 0 to 100
Text: Seeds of plant species selected from bluegrass (annual bluegrass, Poa annua), blackgrass (Alopecurus myosuroides), canarygrass (Phalaris minor), chickweed (common chickweed, Stellaria media), galium (catchweed bedstraw, Galium aparine), bromegrass, down (downy bromegrass, Bromus tectorum), Russian thistle (Salsola kali), field poppy (Papaver rhoeas), field violet (Viola arvensis), foxtail, green (green foxtail, Setaria viridis), deadnettle (henbit deadnettle, Lamium amplexicaule), ryegrass, Ital. (Italian ryegrass, Lolium multiflorum), kochia (Kochia scoparia), lambsquarters (Chenopodium album), oilseed rape (Brassica napus), pigweed (Amaranthus retroflexus), chamomile (scentless chamomile, Matricaria inodora), speedwell (bird's-eye speedwell, Veronica persica), barley, spring (spring barley, Hordeum vulgare), wheat, spring (spring wheat, Triticum aestivum), buckwheat, wild (wild buckwheat, Polygonum convolvulus), wild mustard (Sinapis arvensis), oat, wild (wild oat, Avena fatua), radish, wild (wild radish, Raphanus raphanistrum), […]), barley, winter (winter barley, Hordeum vulgare), and wheat, winter (winter wheat, Triticum aestivum) were planted into a silt loam soil and treated preemergence with test chemicals formulated in a non-phytotoxic solvent mixture which included a surfactant. At the same time, these species were planted in pots containing Sunshine Redi-Earth® planting medium comprising spaghnum peat moss, vermiculite, starter nutrients and dolomitic limestone and treated with postemergence applications of the test chemicals formulated in the same manner. Plants ranged in height from 2 to 18 cm (1- to 4-leaf stage). Treated plants and controls were maintained in a controlled growth environment for 14 to 21 d after which time all species were compared to controls and visually evaluated. […] A dash (-) response means no test result.

field poppy = test: Test D postemergence; assay type: in vivo, Papaver rhoeas; conditions: scale 0 to 100
In short: as §2

oat, wild = test: Test D postemergence; assay type: in vivo, Avena fatua; conditions: scale 0 to 100
In short: as §2

[3] = 16 g ai/ha, 0 is no effect, 100 is complete control

Fc1ccc(-c2nc(OCC(F)(F)F)n(Cc3ccnc(C(F)(F)F)c3)n2)cc1 [Compound 30]
100: Plant response rating, Kochia (kochia [1]; 125 g ai/ha) | Plant response rating, Kochia (kochia [1]; 500 g ai/ha, approx. 10 d) | Plant response rating (scale of 0 to 100 where 0 is no effect and 100 is complete control) (pigweed; 125 g ai/ha) | Plant response rating (scale of 0 to 100 where 0 is no effect and 100 is complete control) (pigweed; 250 g ai/ha) | Pigweed plant response rating (0 to 100) (pigweed; 31 g ai/ha) | Pigweed plant response rating (0 to 100) (pigweed; 62 g ai/ha) | Plant response rating (scale of 0 to 100 where 0 is no effect and 100 is complete control) (oilseed rape; 125 g ai/ha) | Plant response rating (scale of 0 to 100 where 0 is no effect and 100 is complete control) (oilseed rape; 250 g ai/ha) | Plant response rating (0 to 100), Field Violet (field violet; [3]) | Plant response rating: Field Violet (field violet; 62 g ai/ha) | Plant response rating: Field Violet (field violet; 125 g ai/ha) | Plant response rating (0 to 100), Speedwell (speedwell; [3]) | Plant response rating: Speedwell (speedwell; 62 g ai/ha) | Plant response rating: Speedwell (speedwell; 125 g ai/ha) | Plant response rating: Mustard, Wild (wild mustard; 62 g ai/ha) | Plant response rating: Mustard, Wild (wild mustard; 125 g ai/ha) | Plant response rating: Field Poppy (field poppy; 125 g ai/ha)
98: Plant response rating: Field Poppy (field poppy; 62 g ai/ha)
95: Plant response rating: Kochia (kochia [2]; 125 g ai/ha) | Plant response rating: Lambsquarters (lambsquarters; 62 g ai/ha) | Plant response rating: Lambsquarters (lambsquarters; 125 g ai/ha)
40: Plant response rating: Oat, Wild (oat, wild; 16 g ai/ha) | Plant response rating: Oat, Wild (oat, wild; 31 g ai/ha)
90: Plant response rating: Kochia (kochia [2]; 62 g ai/ha) | Plant response rating (0 to 100), Mustard, Wild (wild mustard; [3]) | Plant response rating: Russian Thistle (Russian thistle; 31 g ai/ha) | Plant response rating: Russian Thistle (Russian thistle; 62 g ai/ha) | Plant response rating: Russian Thistle (Russian thistle; 125 g ai/ha) | Plant response rating: Field Poppy (field poppy; 31 g ai/ha)
80: Oilseed Rape plant response rating (0 to 100) (oilseed rape; 31 g ai/ha) | Oilseed Rape plant response rating (0 to 100) (oilseed rape; 62 g ai/ha) | Plant response rating: Russian Thistle (Russian thistle; 16 g ai/ha)
60: Plant response rating: Blackgrass (blackgrass; 31 g ai/ha)
45: Plant response rating: Blackgrass (blackgrass; 16 g ai/ha)
70: Plant response rating: Field Poppy (field poppy; 16 g ai/ha)
85: Plant response rating (0 to 100), Kochia (kochia [2]; [3]) | Plant response rating (0 to 100), Lambsquarters (lambsquarters; [3])
75: Plant response rating: Blackgrass (blackgrass; 125 g ai/ha) | Plant response rating: Oat, Wild (oat, wild; 125 g ai/ha)
65: Plant response rating: Blackgrass (blackgrass; 62 g ai/ha) | Plant response rating: Oat, Wild (oat, wild; 62 g ai/ha)

Reference: patent US10681909B2, “Herbicidal triazoles” (FMC Corporation, priority 2014, dated 2020)
